These results are taken from US20260209152A1, “Substituted Hydroxystilbene Compounds and Derivatives, Synthesis and Uses Thereof” (Kynan Duke IP, LLC, priority 2019, published 2026).

Assay [1] relates to IL-2 secretion from human CD4-positive T-cells stimulated with antiCD2/antiCD3/antiCD28-coated beads. Briefly: T-cell IL-2 assay (assay number 1297, 1298). Format: cell-based. As to conditions: for Max Eff.: IL-2 (1297): highest effect as percentage of control maximum effect; for EC50: inhibition of IL-2 secretion, human CD4-positive T-cells, read-out: Abs EC50: IL-2 (1297). The protocol: (§1) Inhibition of IL-4 and IL-2 secretion from human CD4-positive T-cells stimulated with antiCD2/antiCD3/antiCD28-coated beads. LEO Pharma Open Innovation assay number 1297, 1298, 1299.
(§2) Then the level of secreted of IL-4 is measured in the culture supernatant using electrochemiluminescence (MSD kits, Meso Scale Discovery), IL-2 is measured by proximity homogenous time-resolved fluorescence (HTRF) and the amount of living cells is measured by addition of resazurin (PrestoBlue®) to allow identifying compounds that inhibit T-cell proliferation or viability.
(§3) • Peripheral blood mononuclear cells (PBMC) are isolated from fresh human buffy coats by centrifugation on Lymphoprep® following instructions from Sebmate™ (Stemcell). • The cells are resuspended in 30 ml of PBS+2% Serum and counted. • CD4 positive T-cells are isolated from freshly isolated PBMC using EasySep™ humane CD4+ T-cell Isolation Kit (Catalog #17952) and following the manufacturer's protocol. • Cells are spun down and resuspended in freezing medium (X-vivo 15+10% FBS+5% DMSO) • Cells are frozen in aliquots of 3×10^7 cells/vial matching one 384 plate. Cells are place in Coolcell box and place in −80° C. freezer for one day then transferred to the −150° C. freezer in a prechilled box.
(§4) • Prepare assay medium: 500 ml X-Vivo 15+5 ml Glutamax (2 mM final)+5 ml pen/strep (100 U/ml final). • Add 5 μL medium to the wells of a 384 well plate (Greiner cat. No 788986). • CD4+ Cells: Thaw frozen cells from −150° C. freezer in 37° C. bath, and pipette the cells into 10 ml medium. Spin 10 min @170 g. • Resuspend pellet in 3.5 ml per 2.5×10^7 cells and add 10 μL per well to the plate (40000 cells/well) • Test compounds: Prepare compound-containing source plate, i.e. titrations in DMSO to be transferred to the assay plate. • Add 25 nL compounds and controls from the source plate to the assay plate (with cells). • Beads (T Cell Activation/Expansion Kit-human, Miltenyi Biotech, cat. no. 130-091-441): Coat beads with antibodies according to the kit procedure. • Add 10 μL beads to each well except for the negative controls. One bead per cell. Add 10 μL medium to the negative controls. • Incubate plates at 37° C., 5% CO2/95% air for 2 days.
(§5) • Remove plates from incubation and equilibrate to room temperature for 30 minutes. • IL-4 concentration in 10 μL supernatant is measured using an MSD IL-4 384-plate kit (Custom made) according to manufacturer protocol. • IL-2 concentrations in the supernatant is measured by an IL-2 HTRF kit, CisBio, cat. No 62HIL02PEH. • Add 4 μL medium to white proxi 384-well plates • Add 1 μL supernatant. • Add 4 μL mHTRF mix (each diluted 1:300 in ⅔ reconstitution buffer and ⅓ assay medium). • Spin the plates for 1 minute at 170 g • Seal and incubate overnight and read fluorescence in a plate reader • The amount of viable cells is measured by PrestoBlue® reagent • Add 15 μL diluted PrestoBlue® reagent (resazurin) corresponding to 2.5 μL Prestoblue/well to the assay plate. • Incubate overnight at 37° C./5% CO2. The fluorescence in the wells is measured (Ex615/Em 535).
(§6) IL-4 concentration in the supernatants is measured using electrochemiluminescence (MSD kits, Meso Scale Discovery). IL-2 concentration in the supernatants is measured using homogeneous time-resolved fluorescence resonance (TR-FRET). The assay is quantified by measuring fluorescence at 665 nm (proportional to IL-2 concentration) and 620 nm (control). A ratio 665/620*1000 is calculated.
(§7) The capacity of the test compound to inhibit IL-4 and IL-2 release is normalized to the signal in the negative control wells with un-stimulated T-cells.

Assay [2] relates to IL-4 secretion from human CD4-positive T-cells stimulated with antiCD2/antiCD3/antiCD28-coated beads. Briefly: T-cell IL-4 assay (assay number 1297, 1298). Format: cell-based. The note with it: for Max Eff.: IL-4 (1298): highest effect as percentage of control maximum effect; for Emax: read-out: maximum efficacy, IL-4 secretion. Here is the method:
as §1
The inflammatory skin disease atopic dermatitis is characterized by the T-cell cytokines IL-4, IL-13 and IL-22. In the present assay, human T-cells are stimulated with beads coated with antibodies against CD2, CD3 and CD28 to activate the T-cell receptor.
as §2, §3, §4, §5, §6, §7

Assay [3] concerns Kidney A-498. Briefly: CellTiter Glo cell viability assay. It is filed as cell-based, human. In a few lines:
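Cell viability of the human renal line A498 was measured by luminescence using CellTiter Glo (Promega), following the manufacturer's protocol, after plating 1.7*10^3 cells/well in 96-well plates. Relative luminescence units were plotted against log dose, and dose-response curves were fitted by nonlinear regression in GraphPad Prism 7 to derive IC50 values.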
A general note: In ATP-based viability assays light output follows the ATP content of the culture.

The mark [4] stands for this setting: inhibition of IL-4 secretion, human CD4-positive T-cells, read-out: Abs EC50: IL-4 (1298).
Setting [5] is: Homo sapiens, A498, Table 5A: 11 dilutions 3-0.00001 μM, single experiments Exp E-K, read-out: IC50.
Setting [6] is: Homo sapiens, CD4 positive, read-out: EC50, inhibition of IL-4 secretion.
The mark [7] stands for this setting: Homo sapiens, A498, A-498/HTB-44, 11 dilutions 3-0.00001 μM, Table 6, read-out: IC50.
The mark [8] stands for this setting: Homo sapiens, A498, Table 5A: 11 dilutions 3-0.00001 μM, average of experiments, read-out: IC50 average.
Setting [9] is: Homo sapiens, A498, 72 h, 3 Days of treatment, 18 2-fold dilutions 5-0.00003 μM, read-out: Average IC50.
Where [10] appears, read: Homo sapiens, A498, 72 h, Table 4: 3 Days of treatment, 18 2-fold dilutions 5-0.00003 μM, Average (1, 8) or single Exp A-D, read-out: IC50.

Several values for one entry are separate records, joined by “and”; a condition that tells them apart may be missing. Identical values can stand only once. Like-named read-outs stand apart in the source and are kept apart here.

The term EC50 denotes the concentration giving half of the maximal effect. Usually IC50 stands for the concentration at which inhibition is half-maximal.

For `CCOc1cc(O)cc(/C=C/c2ccc(NC(=O)C(=O)O)c(OC)c2)c1CC=C(C)C` [Compound 35, (E)-2-((4-(3-Ethoxy-5-hydroxy-2-(3-methylbut-2-en-1-yl)styryl)-2-methoxyphenyl)amino)-2-oxoacetic acid], in assay [1], the “Max Eff.: IL-2 (1297)” value is on record as 16% and the EC50 was determined as 5000 nM. For the same compound, in assay [2], the “Max Eff.: IL-4 (1298)” value stood at 11%. Moreover, the 50% effective concentration (EC50) in assay [2] (setting [4]) is 5000 nM. Moreover, in assay [3] (setting [5]), the IC50 was over 3000 nM.

`COc1cc(/C=C/c2cc(O)cc(OC)c2CC=C(C)C)ccc1NC=O` [Compound 27, (E)-N-(4-(5-hydroxy-3-methoxy-2-(3-methylbut-2-en-1-yl)styryl)-2-methoxyphenyl)formamide]: the “Max Eff.: IL-2 (1297)” value in assay [1] worked out at 46%. The EC50 in assay [1] turned out to be 5000 nM; in assay [2] (setting [6]) it was 507 nM; in assay [2] (setting [4]), 507 nM. Moreover, the Emax in assay [2] (Homo sapiens, CD4 positive) amounted to 79%. The “Max Eff.: IL-4 (1298)” value in assay [2] came out at 79%. Also, the 50% inhibitory concentration (IC50) is 642 nM in assay [3] (setting [7]) and 728 nM in assay [3] (setting [8]).

Consider `CCOc1cc(O)cc(/C=C/c2ccc(NC=O)c(OC)c2)c1CC=C(C)C` [Compound 28, (E)-N-(4-(3-Ethoxy-5-hydroxy-2-(3-methylbut-2-en-1-yl)styryl)-2-methoxyphenyl)formamide], for which the “inhibition of IL-2 secretion, in words” value in assay [1] is recorded as “lower potency effect”. The “Max Eff.: IL-2 (1297)” value in assay [1] turned out to be 55%. Also, the figures for the EC50 in assay [1], in assay [2] (setting [6]) and in assay [2] (setting [4]) were 4260 nM, 278 nM and 278 nM, respectively. In assay [2], the “effect on IL-4 release, in words” value is reported as “medium potency effect”. In assay [2] (Homo sapiens, CD4 positive), the Emax is 80%. Moreover, in assay [2], the “Max Eff.: IL-4 (1298)” value stood at 80%. Further, the IC50 in assay [3] (setting [7]) is 198 nM; in assay [3] (setting [5]), 100 to 1000 nM; in assay [3] (Table 5A: 11 dilutions 3-0.00001 μM, single experiments Exp E-K, read-out: IC50), 180 nM and 181 nM.

Consider `CCOc1cc(O)cc(/C=C/c2ccc(O)c(OC)c2)c1CC=C(C)C` [Compound 8, (E)-3-Ethoxy-5-(4-hydroxy-3-methoxystyryl)-4-(3-methylbut-2-en-1-yl)phenol], for which the “Max Eff.: IL-2 (1297)” value in assay [1] was found to be 51%. In addition, the values for the 50% effective concentration (EC50) in assay [1] and in assay [2] (setting [4]) were 5000 nM and 503 nM, respectively. In addition, in assay [2], the “Max Eff.: IL-4 (1298)” value turned out to be 82%. For the same compound, the 50% inhibitory concentration (IC50) was 329 nM in assay [3] (setting [9]); 10.3 nM in assay [3] (setting [10]); 401 nM in assay [3] (setting [7]); 360 nM in assay [3] (setting [8]); 430 nM in assay [3] (Table 5A: 11 dilutions 3-0.00001 μM, average of experiments, read-out: IC50 average). The “Fold IC50” value in assay [3] (IC50 of 1 [KYN-001] vs 8 [KYN-119], 3 Days) came out at 8.5.

Consider `CCOc1cc(O)cc(/C=C/c2ccc(O)c(O)c2)c1CC=C(C)C` [Compound 20, (E)-4-(3-Ethoxy-5-hydroxy-2-(3-methylbut-2-en-1-yl)styryl)benzene-1,2-diol], for which, in assay [1], the “Max Eff.: IL-2 (1297)” value turned out to be 34%. The EC50 in assay [1] and in assay [2] (setting [4]) was 5000 nM each time. In addition, the “Max Eff.: IL-4 (1298)” value in assay [2] came to 54%. Moreover, the IC50 in assay [3] (setting [7]) stood at 620 nM.

For the compound `COc1cc(/C=C/c2cc(O)cc(OC)c2CC=C(C)C)ccc1O` [Compound 1, (E)-3-(4-hydroxy-3-methoxystyryl)-5-methoxy-4-(3-methylbut-2-en-1-yl)phenol], the “Max Eff.: IL-2 (1297)” value in assay [1] turned out to be 42%. Also, the EC50 is 5000 nM in assay [1] and 2930 nM in assay [2] (setting [4]). Also, the “Max Eff.: IL-4 (1298)” value in assay [2] stood at 70%. Besides, the IC50 in assay [3] (setting [9]) stood at 2810 nM; in assay [3] (setting [10]), 109 nM; in assay [3] (setting [7]), 1070 nM; in assay [3] (setting [8]), 1140 nM.

As to `COc1cc(/C=C/c2cc(O)cc(OC)c2CC=C(C)C)ccc1NC(=O)CN` [Compound 31, (E)-2-amino-N-(4-(5-hydroxy-3-methoxy-2-(3-methylbut-2-en-1-yl)styryl)-2-methoxyphenyl)acetamide], the “Max Eff.: IL-2 (1297)” value in assay [1] is listed as 36%. Besides, the EC50 in assay [1] and in assay [2] (setting [4]) was 5000 nM throughout. For the same compound, the “Max Eff.: IL-4 (1298)” value in assay [2] was 29%. For the same compound, the IC50 in assay [3] (setting [5]) is over 3000 nM.
